Test results as given in patent publication US20250288624A1, “LONG-TERM STABILIZATION, FORMULATION AND TABLETING OF LIVE MICROBIAL CELLS” (priority 2022, published 2025).

Experiments:
E. meliloti = experiment: Heat shock screen of material library at 50° C. for 24 hours (Viability Score); type: cell-based, Ensifer meliloti
Protocol: FIG. 18. E. meliloti stabilizers against 24 hours at 50° C. Extended data of FIG. 8. E. meliloti was mixed with the material library at the 1×concentration, freeze dried, and exposed to 50° C. for 24 hours. The viability score was characterized as in FIG. 8, and the data is ordered by the viability score of the comparison values when stored at 23° C.
E. meliloti is currently used as a seed inoculant prior to planting, however, there remains a need for improved stability of the microbial product present during formulation, storage, and seed inoculation, particularly when it comes to tolerance to elevated temperatures above 40° C.^28,29. […] Functional symbiosis was measured as percent of seedlings that successfully formed nodules. […]
(§1) The viability of the stored microbial-material combinations was determined by rehydrating in water, making 10-fold serial dilutions in PBS, plating onto the appropriate solid medium and quantifying the resulting colonies. […]
(§2) To assign a Viability Score, using FIJI (imageJ), the 16-bit tiff plate images were programmatically separated into individual spot images, each spot was segmented, and several image attributes were measured (raw particle count, mean background value, mean segmented region value, segmented region area). […]

Medicago truncatula A17 = experiment: Plant nodulation assay with stabilized E. meliloti; type: in vivo; details: E. meliloti formulated in the material, 50° C. shock for 24 hours, rehydrated, applied to seedlings
Protocol: E. meliloti cultures were prepared as described above (see “High throughput pipeline for microbial material stabilizers”) and freeze-dried with the specified stabilizers following the 1-well plate method described in “Validation of two-material combinations”. The bagged, stabilized powders were exposed to 50° C. for 24 hours in a static incubator and then kept in the dark at 4° C. until used.
Nodulation of Medicago truncatula A17 was assayed according to a protocol from Sadowsky et al. modified to growth in pouches^20-22. Specifically, M. truncatula A17 seeds (Noble Research Institute) were scarified by submerging in concentrated sulfuric acid for 8-9 minutes, washed 8× with sterile water, sterilized by submerging in 8.25% sodium hypochlorite for 90 seconds, washed 8× with sterile water, allowed to imbibe in sterile water for ˜1 hour, placed on 1% agar plates, sealed with parafilm and foil, vernalized at 4° C. in the dark for 5 days and germinated at 23° C. in the dark for 20 hours. […]
The pouches were left undisturbed for 6 days, watered with 5 mL of 1/2×BNM as necessary and then inspected for nodules every other day. On day 12, the number of nodulated seedlings in each pouch was counted. The percent nodulated seedlings was calculated by dividing the number of nodulated seedlings by the total number of seedlings in the pouch.

E. coli Nissle 1917 = experiment: Validation of two-material combinations at 37° C.; type: cell-based, Escherichia coli; details: in combination with melibiose, larger format
Protocol: E. coli Nissle 1917 was prepared as described above (see “Vial-based viability validation”) with a few modifications: the flask culture was 2 L and incubated for 17-18 hours and the final cell suspension in PBS was set to an OD600 of 10-12.
To freeze-dry, the cell suspension (12.5 mL) was mixed with the target material combination (37.5 mL), poured into rectangular 1-well plates, and placed into a tray freeze dryer with shelfs pre-cooled to −40° C. and on custom 0.25-inch aluminum pedestals to ensure heat transfer to the plates. Samples were dried as described above (see “High throughput pipeline”). […]
The viability of the stored samples was assessed by hydrating the samples with 1 mL PBS, making 10-fold serial dilutions, spotting ˜1.5 uL of each dilution in triplicate onto LB agar in 1-well rectangular plates using a pin replicator (V&P Scientific, VP 407A), incubating at 37° C., and counting colonies on the strongest dilution that gives >1 colony per spot. Total CFU counts per sample were calculated by first dividing spot counts by the spotted volume and multiplying by the dilution factor and total rehydration volume, and then averaging across the three spotting replicates. Total CFU counts per mass were calculated by dividing the CFU counts per sample by the mass of the stored sample. Three independently stored replicate samples were analyzed as described. […]

[1] = tested on: Escherichia coli Nissle 1917, Ensifer meliloti, Saccharomyces boulardii, Lactobacillus plantarum; experiment: High throughput pipeline for microbial material stabilizers (Viability Score after freeze-drying); type: cell-based; details: for viability score: after freeze-drying and 24 hours at room temperature, across the 4 microorganisms, score 0 to 1
Protocol: It was hypothesized that a synthetic extremophile that could survive in the dry state could then be enhanced to survive additional environmental insults using material formulation techniques applied to the dry powder (e.g., coating)^9. Therefore, a library was screened, composed primarily of materials generally recognized as safe (GRAS) by the Food and Drug Administration (FDA) for their ability to protect microbes through freeze-drying and survival at room temperature for 24 hours (Table 2). This materials library was applied to 4 microorganisms (Escherichia coli Nissle 1917, Ensifer meliloti, Saccharomyces boulardii, Lactobacillus plantarum) that span a wide range of phylogenetic backgrounds, are technologically important and genetically tractable. Each microorganism was mixed with each of the 260 materials at two different concentrations to give 2,080 microbial-material formulations.
Microbial strains were precultured overnight in 5 mL liquid medium at the appropriate conditions (see above). The overnight culture was diluted 1:1000 fold into three replicates of 125 mL of fresh liquid medium in a flask and cultured for 24 hours. The optical density (OD600) of each replicate culture was recorded (typically 2-2.5 for E. coli Nissle 1917, E. meliloti, L. plantarum and 5-6 for S. boulardii) and the cells were pelleted at 3220 rcf for 15 minutes. The cell pellets were then resuspended in PBS (E. meliloti, L. plantarum, S. boulardii) or spent medium (E. coli Nissle 1917) to a final OD600 of 2.25 and used immediately.
The material library was prepared by mixing each material with ultrapure water to the specified concentration (1×, 5×) in Table 2. The material solutions were arrayed in sealed deep well plates and kept at −20° C. until needed. On the day of use, the material plates were thawed at room temperature, vortexed well and centrifuged briefly.
To freeze-dry, each replicate microbial cell suspension (25 uL) was mixed with the arrayed materials (75 uL) in batch into flat-bottom 96-well plates using a liquid handling robot (Tecan, EVO 150). […]
as §1, §2

OC[C@H]1O[C@H](O[C@H]2[C@H](O)[C@@H](O)C(O)O[C@@H]2CO)[C@H](O)[C@@H](O)[C@@H]1O (mixture of isomers) [maltose]
material class in heat shock screen (synthetic thermotolerance) (E. meliloti): optimal
nodulation of M. truncatula seedlings by stabilized E. meliloti (Medicago truncatula A17): successfully nodulate

Cn1c(=O)c2c(ncn2C)n(C)c1=O [caffeine]
stability of two-material formulation at extended storage times (E. coli Nissle 1917): robust

OC[C@H]1O[C@H](OCC2O[C@@H](O)[C@H](O)[C@@H](O)[C@@H]2O)[C@H](O)[C@@H](O)[C@H]1O (stereo partly drawn) [melibiose]
performance in stabilizer screen ([1]; E. coli Nissle 1917): best performing material

[Na+].[OH-] [sodium hydroxide]
viability score [1]: 0

O=S([O-])S(=O)(=O)[O-].[Na+].[Na+] [sodium metabisulfite]
viability score [1]: 0

OC[C@H]1O[C@@](CO)(O[C@H]2O[C@H](CO)[C@@H](O)[C@H](O)[C@H]2O)[C@@H](O)[C@@H]1O [sucrose]
material class in heat shock screen (synthetic thermotolerance) (E. meliloti): optimal
nodulation of M. truncatula seedlings by stabilized E. meliloti (Medicago truncatula A17): successfully nodulate

OC[C@H]1O[C@H](O[C@H]2O[C@H](CO)[C@@H](O)[C@H](O)[C@H]2O)[C@H](O)[C@@H](O)[C@@H]1O [trehalose]
viability score [1]: measurable viability
